The values below come from patent US20250102494A1, “COMPOSITION FOR PREDICTING OXALIPLATIN DRUG EFFICACY, AND USE THEREOF” (SAMSUNG LIFE PUBLIC WELFARE FOUNDATION, priority 2022, published 2025).

This test concerns HCT116 cells. The test can be described thus: ATPlite cell viability after drug treatment, HCT116 cells in cell-line or organoid culture media. The class given is cell-based. As to conditions: HCT-116; for drug response, colorectal cancer cell line compared with cells under Ex1 organoid culture conditions: FIG. 2; for drug responsiveness, colorectal cancer cell line compared with organoids cultured in Ex1 and Ex2: FIG. 25. On the procedure:
Advanced DMEM/F12+++ (hereinafter referred to as “Ad/DF+++”) was used to produce colorectal cancer organoids. Ad/DF+++ was refrigerated at 4° C. until use, and was used in a cold state during cell washing. Ad/DF+++ medium containing the reagents shown in Table 1 below along with Ad/DF 1× (Gibco) was prepared.
After preparing the Ad/DF+++ medium containing the above reagents, an appropriate amount of Matrigel (Corning #356231) was added so that the ratio between Matrigel and cells suspended in the Ad/DF+++ medium was 7:3. Then, the cells were plated on low attachment well plates at an appropriate density. The density and the type and number of well plates were determined according to the characteristics of each cell type. The medium was prepared according to the composition shown in Table 2 below, and the cells were cultured (expanded) until the required level was reached while the medium was replaced every 3 to 4 days.
If the organoids were expanded as needed for the experiment, the medium was carefully removed, taking care not to touch the Matrigel. The cells were separated from the Matrigel by pipetting about 20 times with 1 ml of cold Ad/DF+++. The cells in 1 to 4 wells per 6-well plate were collected in one 50 ml tube. If cells are collected from more than 4 wells into one tube, the Metrigel may not be washed properly. For this reason, the cells were placed in several tubes. Thereafter, Ad/DF+++ was poured to 20 to 50 ml of each tube, followed by centrifugation at 400 g for 3 minutes at 4° C. The cells were dissociated with 1 to 2 mL of TrypLE™ Express Enzyme (Gibco, 1264-013), transferred to low-attachment 24 well plates, and then treated with 10 μM of Y-27632. Next, the cells were cultured in a CO2 incubator for 5 minutes at 37° C. After pipetting about 20 times, whether the cells would be dissociated into single cells was checked by microscopic observation. If the cells were not dissociated into single cells, the culture under CO2 and pipetting processes were repeated. After the single cells were transferred into 15-ml tubes, Ad/DF+++ was filled to 10 to 15 ml of each tube, followed by centrifugation at 400 g at 4° C. for 3 minutes. After suspending the pellet in Ad/DF+++, the cells were counted and diluted with medium according to the required number of cells.
12 hours after seeding in Experimental Example 1-2 above, the medium was changed with the medium shown in Table 3 below, followed by culturing to produce organoids.
Four hours after the medium change, the cells were treated with oxaliplatin, 5-FU, Irinotecan, and folinic acid. Five days after drug treatment, intracellular ATP expression was determined using the ATPlite assay kit (PerkinElmer), and the data were expressed in terms of cell viability, IC50, and AUC.
As the standard for confirming that cells are sensitive to the drug, the response of the cells to the drug was assumed to be 100%, and the luminescence value of surviving cells after drug treatment was analyzed and compared with the quantified drug response value.
Based on the assumption that the factor that increases the resistance of the organoids to oxaliplatin is an activator or inhibitor that changes the phenotype, the organoids prepared by excluding some or all of activators and inhibitors as shown in Table 4 below were treated with oxaliplatin.
In order to identify the factors that reduce the resistance to oxaliplatin of the Ex2 organoid, activators or inhibitors that change the phenotype were added one by one to the Ex2 organoid composition, thus producing organoids as shown in Table 8 below. Then, it was checked whether the produced organoids had increased resistance to oxaliplatin.
For orientation: ATP-based viability assays read luminescence as a measure of living cells.

Consider `Nc1nc(=O)c2c([nH]1)NCC(CNc1ccc(C(=O)N[C@@H](CCC(=O)O)C(=O)O)cc1)N2C=O` (mixture of isomers) [folinic acid], for which the “drug response, colorectal cancer cell line compared with cells under Ex1 organoid culture conditions” value is reported as “drug response results similar to those of the cells cultured under the organoids culture conditions”; the “drug responsiveness, colorectal cancer cell line compared with organoids cultured in Ex1 and Ex2” value is “drug responses similar to the cells cultured in the organoid culture conditions”.

On to `O=c1[nH]cc(F)c(=O)[nH]1` [5-FU, 5-fluorouracil], for which the “drug response, colorectal cancer cell line compared with cells under Ex1 organoid culture conditions” value is reported as “drug response results similar to those of the cells cultured under the organoids culture conditions”; the “drug responsiveness, colorectal cancer cell line compared with organoids cultured in Ex1 and Ex2” value is given as “drug responses similar to the cells cultured in the organoid culture conditions”.

As for `CCc1c2c(nc3ccc(OC(=O)N4CCC(N5CCCCC5)CC4)cc13)-c1cc3c(c(=O)n1C2)COC(=O)[C@]3(O)CC` [irinotecan], the “drug response, colorectal cancer cell line compared with cells under Ex1 organoid culture conditions” value is “drug response results similar to those of the cells cultured under the organoids culture conditions”; the “drug responsiveness, colorectal cancer cell line compared with organoids cultured in Ex1 and Ex2” value is on record as “drug responses similar to the cells cultured in the organoid culture conditions”.
